Consider eleven compounds from US20020183256A1, “Cytostatic-integrin conjugates having specifically cleavable linking units” (priority 2000, published 2002).

In one series the target is T1, αvβ3 receptor (Homo sapiens, UniProt P05106+P06756).
T1 construct: αvβ3 from human A375 cells was purified; endogenous in cells; host or cells: human A375 cells (receptor purified from the cells, analogous to Wong et al. 1996)
Briefly: αvβ3 binding test (echistatin displacement, WGA SPA beads). To be noted: αvβ3 from human A375 cells. The method, then:
αvβ3 from human A375 cells was purified analogously to a procedure which was described by Wong et al. (Molecular Pharmacology, 50, 529-537 (1996)). In each case, 10 μl of αvβ3 (5 ng) in TBS pH 7.6, 2 mM CaCl2, 1 mM MgCl2, 1% n-octylglucopyranoside (Sigma); 10 μl of test substance in TBS pH 7.6, 0.1% DMSO and 45 μl of TBS pH 7.6, 2 mM CaCl2, 1 mM MgCl2, 1 mM MnCl2 were incubated at room temperature for 1 h. In each case, 25 μl of WGA SPA beads (Amersham, 4 mg/ml) and 10 μl of echistatin (0.1 μCi, Amersham, chloramine-T labelled) were then added. After 16 hours at room temperature, the samples were measured in a scintillation measuring apparatus (Wallac 1450).

A further series relates to SW 480. The series is described as follows: Growth inhibition test (MTT), cytotoxic action on tumour cell lines. Type of series: cell-based, human. The method, then:
(§1) The human large intestine cell lines SW 480 and HT29 (ATCC No. CCL 228 and HTB38 and the mouse melanoma cell line B16F10 (CRL 6475) were grown to confluence in Roux dishes in RPMI 1640 medium with addition of 10% FCS. They were then trypsinized and taken up in RPMI plus 10% FCS to a cell count of 50,000 cells or, for B16F10, 20,000 cells per ml. 100 μl of cell suspension/well were added to a 96 microwell plate and incubated at 37° C. for 1 day in a CO2 incubator. A further 100 μl of RPMI medium and 1 μl of DMSO were then added with the test substances. The growth was checked after day 6. For this, 25 μl of MTT solution (3-(4,5-dimethylthiazol-2-yl)-2,5-diphenyltetrazolium bromide) was added to each well at a starting concentration of 5 mg/ml of H2O. The plate was incubated at 37° C. for 5 hours in a CO2 incubator. The medium was then aspirated and 100 μl of i-propanol/well were added. After shaking with 100 μl of H2O for 30 min, the extinction was measured at 595 nm using a Multiplate Reader (BIO-RAD) 3550-UV).
(§2) The cytostatic action is indicated in Table 2 as an IC50 value, in each case for the individual cell lines.

The next series concerns HT29. The description is as above. The series is classed as cell-based, human. The method, then: as §1, §2
A further series concerns B16F10. The series is described as above. Type of series: cell-based, mouse. The method, then: as §1, §2
A further series deals with T2, MMP-2 (Homo sapiens, UniProt P08253).
T2 construct: purchased Calbiochem
T2 sequence (P08253 110-660): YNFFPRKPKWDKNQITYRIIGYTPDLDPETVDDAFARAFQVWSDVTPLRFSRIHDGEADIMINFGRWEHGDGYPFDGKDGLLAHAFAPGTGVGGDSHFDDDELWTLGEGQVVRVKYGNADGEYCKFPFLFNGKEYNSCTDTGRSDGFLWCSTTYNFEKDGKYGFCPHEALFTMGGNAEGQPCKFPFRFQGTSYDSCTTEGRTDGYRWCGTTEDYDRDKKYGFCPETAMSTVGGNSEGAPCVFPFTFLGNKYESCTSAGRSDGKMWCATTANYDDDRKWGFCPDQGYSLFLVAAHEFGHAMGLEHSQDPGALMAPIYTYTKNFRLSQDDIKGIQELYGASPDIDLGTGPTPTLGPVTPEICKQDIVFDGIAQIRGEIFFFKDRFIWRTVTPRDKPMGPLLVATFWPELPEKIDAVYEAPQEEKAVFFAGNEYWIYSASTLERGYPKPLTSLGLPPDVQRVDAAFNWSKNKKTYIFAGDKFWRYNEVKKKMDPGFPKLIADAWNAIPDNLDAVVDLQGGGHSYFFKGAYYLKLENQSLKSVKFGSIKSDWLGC
Briefly: Cleavage of conjugates by MMP-2 in buffer (HPLC). The settings on record: after 6 h incubation with MMP-2; buffer pH 7.5. The series is classed as biochemical. As to the method: 2.5 μl MMP-2 (Calbiochem) with a specific activity of 60 μU/μl are incubated with 10 nM of the conjugates exemplified in the example series 1-25 in 1 ml of a medium consisting of 50 mM Tris-HCl pH 7.5, 0.2 M NaCl, 10 mM CaCL2*2H2O and 0.05% Brij 35. The enzyme mediated cleavage of the conjugates is detected by HPLC analysis using an RP18 (5 μM) column with 70% HClO4/water (0.4% v/v) as eluent A and acentonitrile as eluent B (UV detection at […]). The efficiency of the cleavage is assessed by comparing the peak areas of the intact conjugate (starting material) and the cleavage product (tripeptide conjugate of camptothecin) after 6 h and 24 h incubation (cf. Table 5).

[1] abbreviates: IC50 values of the binding to the αvβ3 receptor.
The mark [2] stands for this setting: SW480, MTT after day 6, read-out: IC50 values of the cytotoxic action on tumour cell lines, SW480.
Where [3] appears, read: HT29, MTT after day 6, read-out: IC50 values of the cytotoxic action on tumour cell lines, HT29.
Setting [4] is: B16F10, MTT after day 6, read-out: IC50 values of the cytotoxic action on tumour cell lines, B16F10.
The mark [5] stands for this setting: read-out: IC50 values of the binding to the αvβ3 receptor.

Each structure is given as a SMILES string. Read-outs that look alike come from different tables or passages of the source. *1 amine or outer side, *2 acyl side, *3 side chain or, on linkers, in order; H or OH if unused. Where a SMILES comes first, the peptide text is derived from it. [ ]: non-standard residue; d: D form. The star is where a group is joined. X6 = O=C(O)CC(NS(=O)(=O)c1ccc(-c2cccc(NC(=O)Nc3nc4ccccc4[nH]3)c2)cc1)c1cccc(N*)c1; Camptothecin(20R,20-O) = CC[C@]1(O*)C(=O)OCc2c1cc1n(c2=O)Cc2cc3ccccc3nc2-1; X2 = CCCNC(=O)Nc1cccc(S(=O)(=O)Nc2cccc(C(CC(=O)O)NC(=O)Nc3ccc(N*)cc3)c2)c1; X1 = CCCNC(=O)Nc1cccc(S(=O)(=O)Nc2cccc(C(CC(=O)O)N*)c2)c1; NH(1,4-C6H4)NHCS = S=C(Nc1ccc(N[*:1])cc1)[*:2]; CO = O=C([*:1])[*:2]; GABA = NCCCC(=O)O

T1 sequence (P06756 31-889 limits assumed): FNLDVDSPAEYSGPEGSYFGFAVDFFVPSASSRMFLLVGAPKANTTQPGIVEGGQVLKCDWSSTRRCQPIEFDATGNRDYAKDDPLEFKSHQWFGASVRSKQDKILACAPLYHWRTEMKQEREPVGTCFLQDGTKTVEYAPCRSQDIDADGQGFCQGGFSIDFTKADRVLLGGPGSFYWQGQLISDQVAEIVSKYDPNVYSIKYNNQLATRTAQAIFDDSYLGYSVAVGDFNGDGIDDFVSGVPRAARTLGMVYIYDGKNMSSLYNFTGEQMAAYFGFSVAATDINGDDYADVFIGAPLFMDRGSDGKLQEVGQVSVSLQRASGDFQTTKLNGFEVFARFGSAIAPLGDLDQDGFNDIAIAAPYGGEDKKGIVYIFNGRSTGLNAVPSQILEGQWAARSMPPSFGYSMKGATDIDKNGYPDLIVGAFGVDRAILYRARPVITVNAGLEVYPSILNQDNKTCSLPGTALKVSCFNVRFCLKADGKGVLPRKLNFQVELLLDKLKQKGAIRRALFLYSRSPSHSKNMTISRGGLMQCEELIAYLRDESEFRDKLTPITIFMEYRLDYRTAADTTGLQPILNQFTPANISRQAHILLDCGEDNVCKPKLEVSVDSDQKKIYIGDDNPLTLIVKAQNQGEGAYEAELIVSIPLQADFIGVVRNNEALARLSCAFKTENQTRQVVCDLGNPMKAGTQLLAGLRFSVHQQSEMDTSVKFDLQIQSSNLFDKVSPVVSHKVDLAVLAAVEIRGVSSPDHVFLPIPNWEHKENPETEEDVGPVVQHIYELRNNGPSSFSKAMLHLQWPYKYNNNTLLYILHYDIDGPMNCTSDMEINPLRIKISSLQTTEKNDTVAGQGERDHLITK
T1 sequence (P06756 891-1048 partner limits assumed): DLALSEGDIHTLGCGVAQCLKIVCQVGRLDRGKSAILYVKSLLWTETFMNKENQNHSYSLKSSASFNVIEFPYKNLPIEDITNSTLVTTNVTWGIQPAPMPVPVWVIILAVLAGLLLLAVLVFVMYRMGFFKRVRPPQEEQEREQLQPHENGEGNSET
T1 sequence (P05106 27-788): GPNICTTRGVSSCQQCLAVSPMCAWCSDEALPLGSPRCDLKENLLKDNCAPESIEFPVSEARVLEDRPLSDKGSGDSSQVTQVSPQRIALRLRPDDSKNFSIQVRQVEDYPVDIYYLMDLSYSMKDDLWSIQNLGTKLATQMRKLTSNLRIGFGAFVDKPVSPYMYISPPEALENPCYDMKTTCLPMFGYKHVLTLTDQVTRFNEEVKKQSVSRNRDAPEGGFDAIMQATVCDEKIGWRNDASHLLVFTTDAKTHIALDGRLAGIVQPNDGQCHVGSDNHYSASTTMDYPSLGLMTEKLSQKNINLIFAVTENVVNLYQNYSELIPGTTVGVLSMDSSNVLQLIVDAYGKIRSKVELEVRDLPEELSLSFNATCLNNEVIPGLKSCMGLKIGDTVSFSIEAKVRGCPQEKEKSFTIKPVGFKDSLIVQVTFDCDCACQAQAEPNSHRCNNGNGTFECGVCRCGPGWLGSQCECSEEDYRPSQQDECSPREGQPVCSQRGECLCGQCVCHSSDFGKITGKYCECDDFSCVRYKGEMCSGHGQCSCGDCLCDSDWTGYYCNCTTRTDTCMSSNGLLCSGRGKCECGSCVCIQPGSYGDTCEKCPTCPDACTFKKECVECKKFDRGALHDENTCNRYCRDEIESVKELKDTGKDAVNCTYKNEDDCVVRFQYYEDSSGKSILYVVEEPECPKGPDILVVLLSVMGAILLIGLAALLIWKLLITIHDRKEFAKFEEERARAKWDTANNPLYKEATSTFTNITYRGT

For `CCCNC(=O)Nc1cccc(S(=O)(=O)Nc2cccc(C(CC(=O)O)NC(=O)Nc3ccc(NC(=S)N4CCC[C@@H]4C(=O)N[C@@H](CC(C)C)C(=O)NCC(=O)N[C@H](CC(C)C)C(=O)N[C@H](CSC)C(=O)N[C@@H](C(=O)O[C@@]4(CC)C(=O)OCc5c4cc4n(c5=O)Cc5cc6ccccc6nc5-4)C(C)C)cc3)c2)c1` (stereo partly drawn) [Example 13] ({X1-CO}-[NH(1,4-C6H4)NHCS][dP]LG[dL][dC](Me)[dV]-{Camptothecin(20R,20-O)}), the IC50 came to 50 nM at αvβ3 receptor (setting [1]), 80 nM in the series with SW 480 (setting [2]), 100 nM with HT29 (setting [3]) and 400 nM in the series with B16F10 (setting [4]).
The like results for `CCCNC(=O)Nc1cccc(S(=O)(=O)Nc2cccc(C(CC(=O)O)NC(=O)Nc3ccc(NC(=S)N4CCCC4C(=O)NC(CC(C)C)C(=O)NCC(=O)N[C@H](CC(C)C)C(=O)N[C@@H](C(=O)O[C@@]4(CC)C(=O)OCc5c4cc4n(c5=O)Cc5cc6ccccc6nc5-4)C(C)C)cc3)c2)c1` (some centres unmarked) [Example 8] were, in that order, 30 nM, 200 nM, 150 nM and 350 nM.
For the compound `CCCNC(=O)Nc1cccc(S(=O)(=O)Nc2cccc(C(CC(=O)O)NC(=O)Nc3ccc(NC(=S)N4CCC[C@@H]4C(=O)N[C@@H](CC(C)C)C(=O)NCC(=O)N[C@H](CC(C)C)C(=O)N[C@H](CSC)C(=O)N[C@@H](C(=O)O[C@@]4(CC)C(=O)OCc5c4cc4n(c5=O)Cc5cc6ccccc6nc5-4)C(C)C)cc3)c2)c1` (stereo partly drawn) [Example 14] ({X1-CO}-[NH(1,4-C6H4)NHCS][dP]LG[dL][dC](Me)[dV]-{Camptothecin(20R,20-O)}), the IC50 on αvβ3 receptor (setting [1]) came to 70 nM; in the series with SW 480 (setting [2]), 50 nM; in the series on HT29 (setting [3]), 60 nM; in the series on B16F10 (setting [4]) it was 400 nM. Also, the “MMP-2 mediated cleavage Peak area product/educt x100” value at MMP-2 came out at 5.
Consider `CCCNC(=O)Nc1cccc(S(=O)(=O)Nc2cccc(C(CC(=O)O)NC(=O)Nc3ccc(NC(=O)NCCCC(=O)N4CCC[C@@H]4C(=O)N[C@@H](CC(C)C)C(=O)NCC(=O)N[C@H](CC(C)C)C(=O)N[C@H](CC(N)=O)C(=O)N[C@@H](C(=O)O[C@@]4(CC)C(=O)OCc5c4cc4n(c5=O)Cc5cc6ccccc6nc5-4)C(C)C)cc3)c2)c1` (stereo partly drawn) [Example 18] ({X2-CO-GABA}-[dP]LG[dL][dN][dV]-{Camptothecin(20R,20-O)}), for which the IC50 on αvβ3 receptor (setting [1]) stood at 20 nM; in the series on SW 480 (setting [2]), 35 nM; with HT29 (setting [3]), 25 nM; in the series on B16F10 (setting [4]), 70 nM. For the same compound, the “MMP-2 mediated cleavage Peak area product/educt x100” value at MMP-2 is reported as 51.
In the case of `CCCNC(=O)Nc1cccc(S(=O)(=O)Nc2cccc(C(CC(=O)O)NC(=O)Nc3ccc(NC(=O)N4CCC[C@@H]4C(=O)N[C@@H](CC(C)C)C(=O)NCC(=O)N[C@H](CC(C)C)C(=O)N[C@H](Cc4c[nH]c5ccccc45)C(=O)N[C@@H](C(=O)O[C@@]4(CC)C(=O)OCc5c4cc4n(c5=O)Cc5cc6ccccc6nc5-4)C(C)C)cc3)c2)c1` (stereo partly drawn) [Example 15] ({X2-CO}-[dP]LG[dL][dW][dV]-{Camptothecin(20R,20-O)}), the IC50 at αvβ3 receptor (setting [1]) was 500 nM; in the series on SW 480 (setting [2]), 1500 nM; in the series on HT29 (setting [3]) it was 500 nM; in the series with B16F10 (setting [4]), 8000 nM.
Turning to `CCCNC(=O)Nc1cccc(S(=O)(=O)Nc2cccc(C(CC(=O)O)NC(=O)Nc3ccc(NC(=S)N4CCC[C@@H]4C(=O)N[C@@H](CC(C)C)C(=O)NCC(=O)N[C@H](CC(C)C)C(=O)N[C@H](CC(N)=O)C(=O)N[C@@H](C(=O)O[C@@]4(CC)C(=O)OCc5c4cc4n(c5=O)Cc5cc6ccccc6nc5-4)C(C)C)cc3)c2)c1` (some centres unmarked) [Example 9], the IC50 turned out to be 30 nM at αvβ3 receptor (setting [5]); 60 nM in the series with SW 480 (human, 6 days); 80 nM in the series on HT29 (human, 6 days); 400 nM with B16F10 (mouse, 6 days).
As for `CCCNC(=O)Nc1cccc(S(=O)(=O)Nc2cccc(C(CC(=O)O)NC(=O)Nc3ccc(NC(=S)N4CCC[C@@H]4C(=O)N[C@@H](CC(C)C)C(=O)NCC(=O)N[C@H](CC(C)C)C(=O)N[C@H](CCCCN)C(=O)N[C@H](C(=O)O[C@@]4(CC)C(=O)OCc5c4cc4n(c5=O)Cc5cc6ccccc6nc5-4)C(C)C)cc3)c2)c1` (stereo partly drawn) [Example 20] ({X1-CO}-[NH(1,4-C6H4)NHCS][dP]LG[dL][dK]V-{Camptothecin(20R,20-O)}), the IC50 on αvβ3 receptor (setting [1]) is 50 nM; with SW 480 (setting [2]) it was 50 nM; in the series on HT29 (setting [3]), 70 nM; in the series on B16F10 (setting [4]) it was 300 nM.
Consider `CCCNC(=O)Nc1cccc(S(=O)(=O)Nc2cccc(C(CC(=O)O)NC(=O)Nc3ccc(NC(=S)N4CCC[C@@H]4C(=O)N[C@@H](CC(C)C)C(=O)NCC(=O)N[C@H](CSC)C(=O)N[C@H](Cc4c[nH]cn4)C(=O)N[C@@H](C(=O)O[C@@]4(CC)C(=O)OCc5c4cc4n(c5=O)Cc5cc6ccccc6nc5-4)C(C)C)cc3)c2)c1` (some centres unmarked) [Example 19], for which the IC50 on αvβ3 receptor (setting [5]) was found to be 20 nM; in the series on SW 480 (human, 6 days), 60 nM; with HT29 (human, 6 days), 80 nM; in the series on B16F10 (mouse, 6 days), 300 nM.
As to `CC[C@]1(OC(=O)[C@H](NC(=O)[C@@H](Cc2c[nH]cn2)NC(=O)[C@@H](CC(C)C)NC(=O)CNC(=O)[C@H](CC(C)C)NC(=O)[C@H]2CCCN2C(=O)Nc2cccc(C(CC(=O)O)NS(=O)(=O)c3ccc(-c4cccc(NC(=O)Nc5nc6ccccc6[nH]5)c4)cc3)c2)C(C)C)C(=O)OCc2c1cc1n(c2=O)Cc2cc3ccccc3nc2-1` (stereo partly drawn) [Example 7] ({X6-CO}-[dP]LG[dL][dH][dV]-{Camptothecin(20R,20-O)}), the IC50 came to 700 nM on αvβ3 receptor (setting [1]), 150 nM in the series with SW 480 (setting [2]), 150 nM with HT29 (setting [3]) and 600 nM in the series with B16F10 (setting [4]).
As to `CCCNC(=O)Nc1cccc(S(=O)(=O)Nc2cccc(C(CC(=O)O)NC(=O)Nc3ccc(NC(=S)N4CCC[C@H]4C(=O)N[C@@H](CC(C)C)C(=O)NCC(=O)N[C@@H](CC(C)C)C(=O)N[C@@H](Cc4ccccc4)C(=O)N[C@H](C(=O)O[C@]4(CC)C(=O)OCc5c4cc4n(c5=O)Cc5cc6ccccc6nc5-4)C(C)C)cc3)c2)c1` (some centres unmarked) [Example 33], the values for the IC50 with SW 480 (setting [2]), with HT29 (setting [3]) and with B16F10 (setting [4]) were 400 nM, 300 nM and 1000 nM, respectively.
On the same counts, the results for `CCCNC(=O)Nc1cccc(S(=O)(=O)Nc2cccc(C(CC(=O)O)NC(=O)Nc3ccc(NC(=S)N4CCC[C@H]4C(=O)N[C@@H](CC(C)C)C(=O)NCC(=O)N[C@@H](CC(C)C)C(=O)N4CCC[C@H]4C(=O)N[C@H](C(=O)O[C@]4(CC)C(=O)OCc5c4cc4n(c5=O)Cc5cc6ccccc6nc5-4)C(C)C)cc3)c2)c1` (some centres unmarked) [Example 38] are 200 nM, 150 nM and 1000 nM.
